What was measured:
[1] = biological target: T1, 5-HT1A serotonin receptor (Rattus norvegicus, UniProt P19327); test: 5-HT1A receptor binding, displacement of [^3 H]8-OHDPAT (procedure of Hall et al., J. Neurochem. 44, 1685 (1985))
T1 construct: from tissue
T1 sequence (P19327 1-422): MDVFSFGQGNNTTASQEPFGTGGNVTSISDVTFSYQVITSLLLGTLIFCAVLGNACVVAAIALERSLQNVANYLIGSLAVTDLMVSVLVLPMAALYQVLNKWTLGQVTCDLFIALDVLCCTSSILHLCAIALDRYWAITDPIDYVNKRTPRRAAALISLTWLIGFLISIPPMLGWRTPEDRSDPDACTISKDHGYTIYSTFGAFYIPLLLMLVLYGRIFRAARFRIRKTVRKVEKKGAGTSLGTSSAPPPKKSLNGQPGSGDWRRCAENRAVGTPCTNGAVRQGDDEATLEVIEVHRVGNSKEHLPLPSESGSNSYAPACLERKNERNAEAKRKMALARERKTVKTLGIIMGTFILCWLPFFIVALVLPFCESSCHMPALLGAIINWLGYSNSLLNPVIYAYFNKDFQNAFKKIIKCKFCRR
Description: High affinity for the serotonin 5-HT1A receptor was established by testing the claimed compound's ability to displace [^3 H]8-OHDPAT (dipropylaminotetralin) from the 5-HT1A serotonin receptor following the procedure of Hall et al., J. Neurochem.

[2] = biological target: T1, 5-HT1A serotonin receptor; conditions: qualitative statement on reference standard; cited from earlier work

Row | Compound | IC50 [1] [nM] | affinity for the 5-HT1A serotonin receptor subtype of the standard (in words) [2]
1 | O=C1CC2(CCCC2)CC(=O)N1CCCCN1CCN(c2ncccn2)CC1 [Buspirone] |  | potent affinity
2 | O=C(C(CCN1CCN(c2cccccc2=O)CC1)c1ccccc1)N1CCCCCC1 (centres unmarked) [Example 1, 2-[4-(4-Azepan-1-yl-4-oxo-3-phenyl-butyl)-piperazin-1-yl]-cyclohepta-2,4,6-trienone] | 18.6 | 
3 | C[C@H](CN1CCN(c2cccccc2=O)CC1)Nc1ccccn1 [Example 2, (R)-2-{4-[2-(Pyridin-2-ylamino)-propyyl}-piperazin-1-yl}-cyclohepta-2,4,6trienone] | 19.8 | 

More lines, main results first:

Row | IC50 [1] [nM] | Compound | affinity for the 5-HT1A serotonin receptor subtype of the standard (in words) [2]
4 | 351 | C[C@H](CN1CCN(c2cccccc2=O)CC1)N(C(=O)C1CCCCC1)c1ccccn1 [Example 4, Cyclohexanecarboxylic acid (R)-{1-methyl-2-[4-(7-oxo-cyclohepta-1,3,5-trienyl)-piperazin-1-yl]-ethyl}-(pyrilin-2-yl)-amide] | 
5 | 861 | C[C@H](CN1CCN(c2cccccc2=O)CC1)N(C(=O)C1CC=CCC1)c1ccccn1 (stereo partly drawn) [Example 3, Cyclohex-3-enecarboxylic acid (R)-{1-methyl-2-[4-(7-oxo-cyclohepta-1,3,5-trienyl)-piperazin-1-yl]-ethyl}-(pyridin-2-yl)-amide] | 

Reference: patent US5541179A, “Tropon-2-one piperazine carboxamides as serotonergic agents” (American Home Products Corporation, priority 1995, dated 1996)
